Test results taken from patent US11357871B2, “Challenge test for diagnosing subtypes of ASD” (Stalicla S.A., priority 2017, dated 2022).
Read-outs that look alike come from different tables or passages of the source.

Columns and labels:
[1] = system: lymphoblastoid cell lines of ASD phenotype 1 patients; assay: Biolog Phenotype Mammalian MicroArray (PM-M) NADH/energy production, phenotype 1 cells; assay type: cell-based, human; settings: cells exposed to the substance; AUC (Figure 1) and endpoint absorbance (Table 1)
Experimental: From all subjects, blood samples were collected and lymphoblastoid cell lines generated. Briefly, tubes containing anticoagulant citrate dextrose (ACD) were used to collect blood samples via venipuncture, in order to ensure that the blood cells remained metabolically active. The tubes were kept at room temperature and processed within 24 hours.
Cell lines were obtained by immortalization of lymphocytes from blood samples using Epstein-Barr virus.
Energy production of cells was measured using commercially available Phenotype Mammalian MicroArrays (PM-Ms, Biolog, Hayward, Calif., USA).
The compound in each well was designed to be used by the cells, either as the sole energy source or as the metabolic effector influencing the utilization of an energy source (α-D-glucose) added in the cell suspension. […] Before plating, cell viability and number were assessed utilizing a BioRad cell counter and a trypan blue dye. The concentration of live cells required for plating was 4×10^5 cells/mL, corresponding to 20,000 cells per well in a volume of 50 μL. […] Cells were incubated for 48 h at 37° C. in 5% CO2, using the modified Biolog IF-M1 medium.
The Biolog IF-M1 medium was modified for plates PM-M1 to M4 by adding the following to 100 mL of Biolog IF-M1: 1.1 mL of 100× penicillin/streptomycin solution, 0.16 mL of 200 mM glutamine (final concentration 0.3 mM), and 5.3 mL of Fetal Bovine Serum (FBS, final concentration 5%). For plates PM-M5 to M8, 5.5 mM α-D-glucose will be added in place of FBS.
During the 48-hour incubation, the only energy source the cells had was the chemical in the well. After this first incubation, Biolog Redox Dye Mix MB was added (10 μL/well) and the plates were incubated under the same conditions for an additional 24 hours. As the cells metabolized the energy source, tetrazolium dye in the media was reduced, producing a purple color according to the amount of NADH generated.
For the last 24 hours of the experiment, the plates were incubated in the Omnilog system, which collects optical density readings every 15 minutes, generating 96 data-points for each well. The system also elaborated the kinetic curve for the metabolic reaction in each well and extrapolated parameters such as slope, highest point, endpoint, area under the curve (AUC), and lag.
At the end of the 24-hour incubation, the plates were analyzed utilizing a microplate reader with readings at 590 and 750 nm. The first value (A590) indicated the highest absorbance peak of the redox dye and the second value (A750) gave a measure of the background noise. The relative absorbance (A590-750) was calculated per well.

[2] = system: ASD phenotype 1 patients; assay: Nrf2-activator challenge test, ASD phenotype 1 patients (ADI-R, CGI-S, CGI-I); assay type: in vivo, human; settings: selected patient cohort
Experimental: (§1) The effects of sulforaphane containing Broccoli sprout extract was observed and quantified in 7 individuals suffering from ASD and previously classified as either phenotype 1 or phenotype 2 patients.
The extract was prepared from selected broccoli seeds known to have high yield of sulforaphane which were surface-disinfected and grown (sprouted) for 3 days in a commercial sprouting facility under controlled light and moisture conditions.

[3] = system: ASD phenotype 2 patients; settings: wording of CGI-I rating
Experimental: as §1
We describe a procedure consisting of an evaluation of patients with ASD prior and after administration of broccoli sprout extract. The extract was prepared from selected broccoli seeds known to have high yield of sulforaphane which were surface-disinfected and grown (sprouted) for 3 days in a commercial sprouting facility under controlled light and moisture conditions. A boiling water extract was prepared, filtered, cooled, and treated with the enzyme myrosinase (from daikon sprouts) to convert precursor glucosinolates to isothiocyanates. Behavioral evaluation of patients was performed prior, during and after administration of sulforaphane-containing broccoli sprout extract. Baseline evaluation of patients was performed using standard clinical endpoints (ADI-R subscales ADI-SI, ADI-C and ADI-RI).
Challenge regimen consisted of the administration of a Broccoli Sprout Extract dose corresponding to a total daily dosage of 4 μmol/kg of sulforaphane, administered in 3 doses over the course of the day. […]

Row | Compound | NADH production of ASD phenotype 1 cells compared to TDs and non-phenotype 1 cells [1] | also measured
1 | IL-6: Th1 cytokine | significantly lower levels of NADH | –
2 | IL-1beta: Th1 cytokine | significantly lower levels of NADH | –
3 | hGH(Somatotropin): growth factor that selectively targets the PI3K-Akt-mTOR pathway | significantly reduced production of NADH | –
4 | IGF-I: insulin-like growth factor 1 | no significant differences | –
5 | C[S@@+]([O-])CCCCN=C=S [sulforaphane, 1-isothiocyanato-4R-(methylsulfinyl)butane] | – | reduction of disease severity as measured through the ADI-R, SRS and GGI-S/CGI-I [2]: not effective in reducing disease severity; Clinical significance ([3]; Example 4 Patient 1 (phenotype 2)): Very much improved; Clinical significance ([3]; Example 4 Patient 2 (phenotype 2)): Very much improved
6 | PDGF-AB: platelet-derived growth factor AB | no significant differences | –
7 | FGF-1(aFGF): growth factor that selectively targets the PI3K-Akt-mTOR pathway | significantly reduced production of NADH | –
